Assay results as given in ChEMBL document CHEMBL1124763, “Nucleoside conjugates. 11. Synthesis and antitumor activity of 1-beta-D-arabinofuranosylcytosine and cytidine conjugates of thioether lipids” (1990).

What was measured:
Mus musculus [1] = experiment: Increase of life span was determined against Ip implanted L1210 / ara-C lymphoid leukemia in mice at a dose of 300 mg/kg per day; format: functional; conditions: route intraperitoneal
Mus musculus [2] = experiment: Increase of life span was determined against Ip implanted L1210 / 0 lymphoid leukemia in mice at a dose of 200 mg/kg per day after treatment 1;8/7.5; format: functional; conditions: L1210/0, ip, route intraperitoneal
Mus musculus [3] = experiment: Range of survival days for antitumor activity against Ip implanted L1210 / ara-C lymphoid leukemia in mice at a dose of 300 mg/kg per day; range is 8-9; format: functional; conditions: route intraperitoneal
Mus musculus [4] = experiment: Range of survival days for antitumor activity against Ip implanted L1210 / 0 lymphoid leukemia in mice at a dose of 200 mg/kg per day after treatment 1; range is 4-8; format: functional; conditions: route intraperitoneal
Mus musculus [5] = experiment: Survival time treated / survival time (T/C) for antitumor activity against Ip implanted L1210 / 0 lymphoid leukemia in mice at a dose of 200 mg/kg per day after treatment 1; format: functional; conditions: route intraperitoneal
Mus musculus [6] = experiment: Survival time treated/survival time tested (T/C) for antitumor activity against Ip implanted L1210 / ara-C lymphoid leukemia in mice at a dose of 300 mg/kg per day;8/9; format: functional; conditions: route intraperitoneal
Mus musculus [7] = experiment: Increase of life span was determined against Ip implanted L1210 / 0 lymphoid leukemia in mice at a dose of 100 mg/kg per day after treatment 1; format: functional; conditions: L1210/0, ip, route intraperitoneal
Mus musculus [8] = experiment: Increase of life span was determined against Ip implanted L1210 / 0 lymphoid leukemia in mice at a dose of 200 mg/kg per day after treatment 1; format: functional; conditions: L1210/0, ip, route intraperitoneal
Mus musculus [9] = experiment: Range of survival days for antitumor activity against Ip implanted L1210 / 0 lymphoid leukemia in mice at a dose of 100 mg/kg per day after treatment 1; range is 4-11; format: functional; conditions: route intraperitoneal
Mus musculus [10] = experiment: Range of survival days for antitumor activity against Ip implanted L1210 / 0 lymphoid leukemia in mice at a dose of 200 mg/kg per day after treatment 1; format: functional; conditions: route intraperitoneal
Mus musculus [11] = experiment: Survival time treated / survival time (T/C) for antitumor activity against Ip implanted L1210 / 0 lymphoid leukemia in mice at a dose of 200 mg/kg per day after treatment 1;6/7; format: functional; conditions: route intraperitoneal
Mus musculus [12] = experiment: Survival time treated / survival time (T/C) for antitumor activity against Ip implanted L1210 / 0 lymphoid leukemia in mice at a dose of 100 mg/kg per day after treatment 1;9.5/7; format: functional; conditions: route intraperitoneal
Mus musculus [13] = experiment: Increase of life span was determined against Ip implanted L1210 / ara-C (II) lymphoid leukemia in mice at a dose of 300 mg/kg per day; format: functional; conditions: route intraperitoneal
Mus musculus [14] = experiment: Increase of life span was determined against Ip implanted L1210 / 0 lymphoid leukemia in mice at a dose of 300 mg/kg per day after treatment 1; format: functional; conditions: L1210/0, ip, route intraperitoneal
Mus musculus [15] = experiment: Range of survival days for antitumor activity against Ip implanted L1210 / ara-C (II )lymphoid leukemia in mice at a dose of 300 mg/kg per day; range is 7-8; format: functional; conditions: route intraperitoneal
Mus musculus [16] = experiment: Range of survival days for antitumor activity against Ip implanted L1210 / 0 lymphoid leukemia in mice at a dose of 300 mg/kg per day after treatment 1; range is 7-9; format: functional; conditions: route intraperitoneal
Mus musculus [17] = experiment: Survival time treated/survival time tested (T/C) for antitumor activity against Ip implanted L1210 / ara-C (II) lymphoid leukemia in mice at a dose of 300 mg/kg per day;8/9; format: functional; conditions: route intraperitoneal
Mus musculus [18] = experiment: Median survival time for antitumor activity against Ip implanted L1210 / 0 lymphoid leukemia in mice at a dose of 300 mg/kg per day after treatment 1;7.5-8; conditions: route intraperitoneal

CCCCCCCCCCCCCCCCCCSCC(COP(=O)(O)OP(=O)(O)OC[C@H]1O[C@@H](n2ccc(N)nc2=O)[C@H](O)[C@@H]1O)OC (stereo partly drawn)
ILS at 300 mg/kg/day (Mus musculus [1]): -11% | ILS at 200 mg/kg/day (Mus musculus [2]): 7% | Range of survival days (Mus musculus [3]): 8 | Range of survival days (Mus musculus [4]): 4 | T/C (Mus musculus [5]): 8 | T/C (Mus musculus [6]): 8

CCCCCCCCCCCCCCCCCCSCC(COP(=O)(O)OP(=O)(O)OC[C@H]1O[C@@H](n2ccc(N)nc2=O)[C@@H](O)[C@@H]1O)OC (mixture of isomers)
ILS at 100 mg/kg/day (Mus musculus [7]): 36% | ILS at 200 mg/kg/day (Mus musculus [8]): -14% | Range of survival days (Mus musculus [9]): 4 | Range of survival days (Mus musculus [10]): 6 | T/C (Mus musculus [11]): 6 | T/C (Mus musculus [12]): 9.5

CCCCCCCCCCCCCCCCCCSCC(COP(=O)(O)OP(=O)(O)OC[C@H]1O[C@@H](n2ccc(N)nc2=O)[C@H](O)[C@@H]1O)OC(=O)CCCCCCCCCCCCCCC (mixture of isomers)
ILS at 300 mg/kg/day (Mus musculus [13]): -11% | ILS at 300 mg/kg/day (Mus musculus [14]): -6% | Range of survival days (Mus musculus [15]): 7 | Range of survival days (Mus musculus [16]): 7 | median survival time (Mus musculus [17]): 8 days | median survival time (Mus musculus [18]): 7.5 days
